Laboratory results taken from PMC10112504, “Novel 4-thiophenyl-pyrazole, pyridine, and pyrimidine derivatives as potential antitumor candidates targeting both EGFR and VEGFR-2; design, synthesis, biological evaluations, and in silico studies” (RSC Advances, 2023).

Key:
[1] = system: C. albicans; experiment: Antifungal activity, inhibition zone approach; type: cell-based, Candida albicans; settings: for C. albicans Diameter of inhibition zone (mm): Fungi; for antimicrobial activity with C. albicans, in words: authors' grading of Table 2 values, key not given; for C. albicans % Activity index: ketoconazole = 100
[2] = system: E. coli; experiment: Antibacterial activity, inhibition zone approach; type: cell-based, Escherichia coli; settings: for E. coli Diameter of inhibition zone (mm): Gram-negative bacteria; for antimicrobial activity with E. coli, in words: authors' grading of Table 2 values, key not given; for E. coli % Activity index: gentamicin = 100
[3] = system: A. flavus; experiment: Antifungal activity, inhibition zone approach; type: cell-based, Aspergillus flavus; settings: for A. flavus Diameter of inhibition zone (mm): Fungi; for antimicrobial activity with A. flavus, in words: authors' grading of Table 2 values, key not given; for A. flavus % Activity index: ketoconazole = 100
[4] = system: P. aeuroginosa; experiment: Antibacterial activity, inhibition zone approach; type: cell-based, Pseudomonas aeuroginosa; settings: for P. aeuroginosa Diameter of inhibition zone (mm): Gram-negative bacteria; for antimicrobial activity with P. aeuroginosa, in words: authors' grading of Table 2 values, key not given; for P. aeuroginosa % Activity index: gentamicin = 100
[5] = system: MCF-7; experiment: Anti-proliferative activity, SRB colorimetric assay; type: cell-based; settings: for IC50: Homo sapiens, MCF7, MCF-7 cancer cell line, SRB assay, read-out: Cell lines (IC50 μM) MCF-7; for anti-proliferative activity against MCF-7, in words: authors' grading of Table 1 values, key not given
[6] = system: S. aureus; experiment: Antibacterial activity, inhibition zone approach; type: cell-based, Staphylococcus aureus; settings: for S. aureus Diameter of inhibition zone (mm): Gram-positive bacteria; for antimicrobial activity with S. aureus, in words: authors' grading of Table 2 values, key not given; for S. aureus % Activity index: gentamicin = 100
[7] = system: HepG-2; experiment: Anti-proliferative activity, SRB colorimetric assay; type: cell-based; settings: for IC50: Homo sapiens, HepG2, HepG-2 cancer cell line, SRB assay, read-out: Cell lines (IC50 μM) HepG-2; for anti-proliferative activity against HepG-2, in words: authors' grading of Table 1 values, key not given
[8] = molecular target: VEGFR-2 (Homo sapiens, UniProt P35968); experiment: VEGFR-2 inhibitory activity, homogeneous luminescence release assay; type: biochemical; settings: reference sorafenib; read-out: VEGFR-2 inhibition IC50
Chain of VEGFR-2 (P35968 20-1356): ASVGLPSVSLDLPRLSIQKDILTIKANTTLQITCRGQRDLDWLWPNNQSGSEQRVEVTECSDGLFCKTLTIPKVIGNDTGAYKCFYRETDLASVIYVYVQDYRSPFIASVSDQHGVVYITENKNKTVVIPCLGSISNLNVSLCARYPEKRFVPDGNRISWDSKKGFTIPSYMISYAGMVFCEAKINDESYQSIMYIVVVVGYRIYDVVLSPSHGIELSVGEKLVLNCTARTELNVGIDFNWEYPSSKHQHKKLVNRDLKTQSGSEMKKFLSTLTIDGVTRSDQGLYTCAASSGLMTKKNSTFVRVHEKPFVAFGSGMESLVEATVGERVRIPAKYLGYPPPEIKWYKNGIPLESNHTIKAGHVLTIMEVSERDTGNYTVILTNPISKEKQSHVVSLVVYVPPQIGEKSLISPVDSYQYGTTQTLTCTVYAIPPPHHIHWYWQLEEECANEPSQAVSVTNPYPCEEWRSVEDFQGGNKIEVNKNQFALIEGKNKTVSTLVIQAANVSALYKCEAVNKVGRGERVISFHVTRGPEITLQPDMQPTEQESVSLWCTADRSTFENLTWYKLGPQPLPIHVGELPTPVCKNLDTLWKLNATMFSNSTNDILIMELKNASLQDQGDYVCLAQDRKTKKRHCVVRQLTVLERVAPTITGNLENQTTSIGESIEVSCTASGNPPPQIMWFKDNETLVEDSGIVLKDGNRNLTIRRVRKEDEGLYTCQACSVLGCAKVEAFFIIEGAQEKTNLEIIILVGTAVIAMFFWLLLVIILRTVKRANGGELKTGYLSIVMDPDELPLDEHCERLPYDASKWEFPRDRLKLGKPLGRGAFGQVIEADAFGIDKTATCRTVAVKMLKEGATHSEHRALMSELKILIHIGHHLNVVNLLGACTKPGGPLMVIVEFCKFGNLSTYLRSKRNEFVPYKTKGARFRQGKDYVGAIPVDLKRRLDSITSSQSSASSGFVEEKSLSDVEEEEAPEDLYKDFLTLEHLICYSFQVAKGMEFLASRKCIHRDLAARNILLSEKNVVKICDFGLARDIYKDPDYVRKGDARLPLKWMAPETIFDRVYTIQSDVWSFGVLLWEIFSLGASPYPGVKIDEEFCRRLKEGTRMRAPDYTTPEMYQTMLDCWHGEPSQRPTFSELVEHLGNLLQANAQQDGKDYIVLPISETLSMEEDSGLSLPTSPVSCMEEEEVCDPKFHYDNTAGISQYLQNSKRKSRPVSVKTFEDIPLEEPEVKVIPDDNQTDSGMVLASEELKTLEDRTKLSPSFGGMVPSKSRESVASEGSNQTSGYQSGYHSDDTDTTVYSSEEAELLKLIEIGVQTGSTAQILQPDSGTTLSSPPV
Source text: […]. Briefly, these μM inhibitory concentrations recommend greatly the proposed rationale design for the investigated compounds to act as promising dual EGFR/VEGFR-2 inhibitors.

[9] = system: B. subtilis; experiment: Antibacterial activity, inhibition zone approach; type: cell-based, Bacillus subtilis; settings: for B. subtilis Diameter of inhibition zone (mm): Gram-positive bacteria; for antimicrobial activity with B. subtilis, in words: authors' grading of Table 2 values, key not given; for B. subtilis % Activity index: gentamicin = 100
[10] = molecular target: EGFR (Homo sapiens, UniProt P00533); experiment: EGFR inhibitory activity, homogeneous luminescence release assay; type: biochemical; settings: reference erlotinib; read-out: EGFR inhibition IC50
Chain of EGFR (P00533 25-1210): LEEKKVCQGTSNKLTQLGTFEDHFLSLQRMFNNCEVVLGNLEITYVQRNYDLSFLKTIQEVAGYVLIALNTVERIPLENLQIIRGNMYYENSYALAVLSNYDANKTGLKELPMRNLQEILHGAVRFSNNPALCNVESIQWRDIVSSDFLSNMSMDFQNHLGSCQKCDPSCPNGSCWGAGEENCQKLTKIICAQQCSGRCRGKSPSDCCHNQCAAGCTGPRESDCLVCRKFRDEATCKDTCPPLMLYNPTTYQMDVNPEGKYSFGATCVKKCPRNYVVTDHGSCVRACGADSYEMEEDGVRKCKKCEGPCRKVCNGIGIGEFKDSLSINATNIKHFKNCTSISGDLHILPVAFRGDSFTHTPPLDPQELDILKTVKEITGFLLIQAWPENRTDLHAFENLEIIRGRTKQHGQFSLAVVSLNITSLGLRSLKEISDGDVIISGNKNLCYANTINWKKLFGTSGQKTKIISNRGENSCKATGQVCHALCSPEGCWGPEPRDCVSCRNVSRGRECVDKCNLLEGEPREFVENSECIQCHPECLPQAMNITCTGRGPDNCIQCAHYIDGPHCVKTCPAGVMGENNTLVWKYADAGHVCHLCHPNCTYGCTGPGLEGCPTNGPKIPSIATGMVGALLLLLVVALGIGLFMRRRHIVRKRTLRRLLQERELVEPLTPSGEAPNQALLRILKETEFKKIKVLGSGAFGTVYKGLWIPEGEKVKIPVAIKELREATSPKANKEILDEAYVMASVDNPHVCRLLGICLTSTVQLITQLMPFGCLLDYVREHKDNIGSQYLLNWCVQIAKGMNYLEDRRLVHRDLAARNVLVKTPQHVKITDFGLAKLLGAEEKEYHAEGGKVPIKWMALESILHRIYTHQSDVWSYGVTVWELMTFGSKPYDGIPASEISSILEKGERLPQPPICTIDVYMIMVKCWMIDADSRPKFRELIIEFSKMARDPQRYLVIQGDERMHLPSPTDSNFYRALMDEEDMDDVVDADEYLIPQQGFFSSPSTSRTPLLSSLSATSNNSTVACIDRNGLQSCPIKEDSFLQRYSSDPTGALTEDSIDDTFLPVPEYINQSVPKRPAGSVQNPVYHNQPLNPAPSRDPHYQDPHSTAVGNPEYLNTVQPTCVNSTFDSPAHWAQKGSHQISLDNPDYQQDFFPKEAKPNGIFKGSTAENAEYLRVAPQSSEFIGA

O=C(SC(=S)N1N=C(c2ccc(O)cc2)CC1c1cccs1)c1ccccc1 (stereo not drawn) [18a, Benzoic 3-(4-hydroxyphenyl)-5-(thiophen-2-yl)-4,5-dihydro-1H-pyrazole-1-carbothioic thioanhydride]
melting point: 240 °C
C. albicans Diameter of inhibition zone (mm) [1]: 20 mm
antimicrobial activity with C. albicans, in words [1]: very strong
C. albicans % Activity index [1]: 71.4%
E. coli Diameter of inhibition zone (mm) [2]: 10 mm
antimicrobial activity with E. coli, in words [2]: moderate
E. coli % Activity index [2]: 47.6%
A. flavus Diameter of inhibition zone (mm) [3]: 16 mm
antimicrobial activity with A. flavus, in words [3]: very strong
A. flavus % Activity index [3]: 61.5%
P. aeuroginosa Diameter of inhibition zone (mm) [4]: 15 mm
antimicrobial activity with P. aeuroginosa, in words [4]: very strong
P. aeuroginosa % Activity index [4]: 78.9%
IC50 [5]: 6.92 ± 0.5 µM
anti-proliferative activity against MCF-7, in words [5]: very strong
S. aureus Diameter of inhibition zone (mm) [6]: 13 mm
antimicrobial activity with S. aureus, in words [6]: very strong
S. aureus % Activity index [6]: 72.2%
IC50 [7]: 12.9 ± 1 µM
anti-proliferative activity against HepG-2, in words [7]: strong
IC50 [8]: 344 nM
B. subtilis Diameter of inhibition zone (mm) [9]: 17 mm
antimicrobial activity with B. subtilis, in words [9]: very strong
B. subtilis % Activity index [9]: 77.3%
IC50 [10]: 436 nM

N#Cc1c(-c2cccs2)cc(-c2ccc(O)cc2)nc1N [2a, 2-Amino-6-(4-hydroxyphenyl)-4-(thiophen-2-yl)nicotinonitrile]
melting point: 260 °C
C. albicans Diameter of inhibition zone (mm) [1]: 18 mm
antimicrobial activity with C. albicans, in words [1]: strong
C. albicans % Activity index [1]: 64.3%
E. coli Diameter of inhibition zone (mm) [2]: 9 mm
antimicrobial activity with E. coli, in words [2]: moderate
E. coli % Activity index [2]: 42.8%
A. flavus Diameter of inhibition zone (mm) [3]: 12 mm
antimicrobial activity with A. flavus, in words [3]: moderate
A. flavus % Activity index [3]: 46.1%
P. aeuroginosa Diameter of inhibition zone (mm) [4]: 12 mm
antimicrobial activity with P. aeuroginosa, in words [4]: strong
P. aeuroginosa % Activity index [4]: 63.1%
IC50 [5]: 9.59 ± 0.8 µM
anti-proliferative activity against MCF-7, in words [5]: very strong
S. aureus Diameter of inhibition zone (mm) [6]: 10 mm
antimicrobial activity with S. aureus, in words [6]: moderate
S. aureus % Activity index [6]: 55.5%
IC50 [7]: 8.42 ± 0.6 µM
anti-proliferative activity against HepG-2, in words [7]: very strong
IC50 [8]: 195 nM
B. subtilis Diameter of inhibition zone (mm) [9]: 15 mm
antimicrobial activity with B. subtilis, in words [9]: strong
B. subtilis % Activity index [9]: 68.2%
IC50 [10]: 209 nM

Oc1ccc(C2=NNC(c3cccs3)C2)cc1 (stereo not drawn) [7a, 4-(5-(thiophen-2-yl)-4,5-dihydro-1H-pyrazol-3-yl)phenol]
melting point: 100 to 102 °C
C. albicans Diameter of inhibition zone (mm) [1]: 23 mm
antimicrobial activity with C. albicans, in words [1]: very strong
C. albicans % Activity index [1]: 82.1%
E. coli Diameter of inhibition zone (mm) [2]: 12 mm
antimicrobial activity with E. coli, in words [2]: very strong
E. coli % Activity index [2]: 57.1%
A. flavus Diameter of inhibition zone (mm) [3]: 18 mm
antimicrobial activity with A. flavus, in words [3]: very strong
A. flavus % Activity index [3]: 69.2%
P. aeuroginosa Diameter of inhibition zone (mm) [4]: 17 mm
antimicrobial activity with P. aeuroginosa, in words [4]: very strong
P. aeuroginosa % Activity index [4]: 89.5%
IC50 [5]: 3.54 ± 0.2 µM
anti-proliferative activity against MCF-7, in words [5]: very strong
S. aureus Diameter of inhibition zone (mm) [6]: 15 mm
antimicrobial activity with S. aureus, in words [6]: very strong
S. aureus % Activity index [6]: 83.3%
IC50 [7]: 8.13 ± 0.6 µM
anti-proliferative activity against HepG-2, in words [7]: very strong
IC50 [8]: 509 nM
B. subtilis Diameter of inhibition zone (mm) [9]: 19 mm
antimicrobial activity with B. subtilis, in words [9]: very strong
B. subtilis % Activity index [9]: 86.4%
IC50 [10]: 266 nM
